Measurements: ChEMBL document CHEMBL5729174, “Substituted benzofuran, benzopyrrole, benzothiophene, and structurally related complement inhibitors” (2022)

These molecules were tested against Complement factor D (Homo sapiens, UniProt P00746) (assay: Factor D Esterolytic Assay: An established esterolytic assay for the measurement of Factor D activity and inhibition of Factor D activity was used (Kam, C. M.; McRae, B. J.; Harper, J. W.; Niemann, M. A.; Volanakis, J. E.; Powers, J. C. Human complement proteins D, C2, and B Active site mapping with peptide thioester substrates. J Biol. Chem. 1987, 262, 3444-3451). For this assay Z-Lys-SBzl, 1.29 mM (Kim, S.; Narayana, S. V. L; Volanakis, J. E. Mutational analysis of the substrate binding site of human complement Factor D. Biochemistry. 1994, 33, 14393-14399.) was used as the substrate for Factor D ([…]). Hydrolysis of this compound by Factor D liberated a free sulfhydryl group which is then reacted with 5,5′-dithiobis(2nitrobenzoic acid) producing an intense yellow color (Habeeb, A. F. S. A. Reaction of protein sulfhydryl groups with Ellman's Reagent. Methods in Enzymol. 1976, 25, 457-464). The assays were performed in 96 well microtiter plates and rates of hydrolysis were monitored at 405 nm on a Biotek Synergy H1 plate reader. Hydrolysis rates were reported as change in mOD/min. The assay was conducted in 100 mM HEPES, 500 mM NaCl, pH 7.5 containing 10% DMSO in a final volume of 50 μL per well.).
Sequence of Complement factor D (P00746 whole entry): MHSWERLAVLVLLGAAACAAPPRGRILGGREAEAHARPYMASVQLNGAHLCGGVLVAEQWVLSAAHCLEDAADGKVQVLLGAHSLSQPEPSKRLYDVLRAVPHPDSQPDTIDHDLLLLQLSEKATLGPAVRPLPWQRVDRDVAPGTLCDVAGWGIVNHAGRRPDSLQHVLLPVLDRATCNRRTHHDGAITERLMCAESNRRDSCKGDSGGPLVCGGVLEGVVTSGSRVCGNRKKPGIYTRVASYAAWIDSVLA

IC50, < 1000 nM:
NCc1cccc(-c2cc(COc3ccc(F)cc3CC(=O)O)cc3ccoc23)c1F
NCc1cccc(-c2cc(COc3ccccc3CC(=O)O)cc3cc[nH]c23)c1
NCc1nccc(-c2cc(COc3ccccc3CC(=O)O)cc3c2ccn3S(=O)(=O)C2CC2)c1F
CS(=O)(=O)n1ccc2c(-c3ccnc(CN)c3F)cc(COc3ccccc3CC(=O)O)cc21
